{"source": "patent US20150141375A1", "about": "(priority 2009, published 2015)", "key": {"Variola major": {"test_system": "Variola major", "assay": "organism not typed", "assay_type": "cell-based"}, "Adenovirus [1]": {"test_system": "Adenovirus", "assay": "In vitro activity against Adenovirus (HFF; AdV 5)", "assay_type": "cell-based"}, "human astrocytes": {"test_system": "human astrocytes", "assay": "Toxicity evaluation in human astrocytes (XTT)", "assay_type": "cell-based", "conditions": "two experiments, different astrocyte lots; listed as CMX001-044"}, "EBV": {"test_system": "EBV", "assay": "Patients with EBV-associated PTLD treated with CMX001", "assay_type": "in vivo, human", "from_the_text": "The first patient is a patient with a history of sickle cell anemia developed EBV-associated intracranial post-transplant lymphoproliferative disorder (PTLD). EBV was positive in the plasma (7 Dec. and 14 Dec. 2010) and brain biopsies were consistent with PTLD. In early December, the patient presented with a 3 day history of persistent headache, nausea, vomiting, and diarrhea. […] The patient was admitted to PICU. High intracranial pressure, repetitive seizures associated with apnea led to intubtion and emergency request for CMX001. The use of CMX001 in this patient with EBV-associated PTLD is ongoing since 26 Dec. 2009.\nThe second patient was a heart transplant recipient with EBV-associated PTLD. The patient acquired a primary EBV infection post-operatively. […] The clinical condition continued to destabilize with what was presumed to be EBV-associated encephalitis with EBV detected in the CSF, clinical and EEG-correlated seizure activity and decreased responsiveness and changes in mental status. At the time of request for CMX001, the patient was on mechanical ventilation, had evidence of both pneumonia and PTLD of their lungs, evidence of seizure activity with clinical criteria for encephalopathy being present. The patient received their first dose of CMX001, 20 mg (approximately 3.3 mg/kg) on 3 Mar. 2010, and their second dose on 7 Mar. […] The patient continued to show evidence of progressive neurologic injury. The parents withdrew support on the day following their second dose of CMX001."}, "Adenovirus [2]": {"test_system": "Adenovirus", "assay": "microbe, parasite or virus in culture", "assay_type": "cell-based", "conditions": "for EC50: unidentified adenovirus"}, "HCMV": {"test_system": "HCMV", "assay": "HCMV viral DNA accumulation in HFF cells, real time PCR, 7 days", "assay_type": "cell-based"}, "HSV-1": {"test_system": "HSV-1", "assay": "microbe, parasite or virus in culture", "assay_type": "cell-based"}, "HSV-2": {"test_system": "HSV-2", "assay": "In vitro efficacy against HSV-2 strains in HFF (CPE, plaque reduction)", "assay_type": "cell-based", "from_the_text": "In vitro screening by CPE assay in human foreskin fibroblast (HFF) cells with confirmation using plaque reduction assays in HFF."}, "[3]": {"assay": "SVG cell viability / cell number (MTS, alamar blue, hematoxylin)", "assay_type": "cell-based, human", "conditions": "human; for cytotoxicity at 1 μM: read-out: reduction in viability (MTS)", "protocol": "(§1) Quantification of cell viability using the MTS [3-(4,5-dimethylthiazol-2-yl)-5-(3-carboxymethoxyphenyl)-2-(4-sulfophenyl)-2H-tetrazolium] assay is based on bioactivity of mitochondrial dehydrogenase in living cells, which converts colorless tetrazolium salt to a colored formazan. MTS assays were performed according to manufacturer's instructions (Promega, Madison Wis.). Briefly, culture medium was removed from cells and 50 μL of PBS was added into each well of a 96 well plate. Ten μL of MTS reagent were added to wells of cells, and to a well without cells to determine background. Mixtures were incubated at 37° C. for 2 hours and the absorbance was measured at 490 nm. Trypan blue staining was performed on identical cultures to correlate MTS values with cell viability. The final values indicated are the result from 3 replicates. The value for the non-treated control was set to 100% and all other values are represented as a percentage of the control. Alamar blue (AB) assay.\n(§2) Quantification of cell viability using the alamar blue (AB) assay was performed according to the manufacturer's instructions (Invitrogen, Gaithersburg, Md.). Briefly, 10 μL of AB reagent was added to each well of a 96 well dish containing cells or without cells to determine background. Mixtures were incubated at 37° C. for 6 hours and the absorbance measured at 570 nm using 600 nm as a reference wavelength. The value for the non-treated control was set to 100% and all other values are represented as a percentage of the control.\n(§3) Because cell density in cultures processed for in situ DNA hybridization could not be measured by MTS or AB assays, cell density was approximated in cell cultures processed by quantifying hematoxylin staining intensity. Coverslips containing cells were prepared for in situ DNA hybridization and co-stained with hematoxylin. Subsequently, each coverslip was scanned and the hematoxylin intensities quantified using ImageJ. To determine the total cell number per coverslip, images were acquired at 10 random positions at 100× magnification. Cells were counted throughout each image and the average cell number per slide was generated by averaging counts from the 10 images for each experimental group. Exactly 900 images at 100× magnification cover the surface of an 18 mm×18 mm coverslip."}, "SVG cells": {"test_system": "SVG cells", "assay": "SVG cell viability / cell number (MTS, alamar blue, hematoxylin)", "assay_type": "cell-based, human", "protocol": "as §1, §2, §3"}, "vaccinia virus": {"test_system": "vaccinia virus", "conditions": "CMX001 200 mg initial dose plus other therapies (MMWR 2009); cited from earlier work"}, "adenovirus [4]": {"test_system": "adenovirus", "assay": "Pediatric bone marrow transplant recipient with disseminated adenovirus infection"}}, "note": "“And” between values parts separate entries of the source, which are not always exact repeats. Equal values may be shown once. Read-outs that look alike come from different tables or passages of the source."}
{"smiles": "CCCCCCCCCCCCCCCCOCCCOP(=O)(O)CO[C@H](CO)Cn1ccc(N)nc1=O", "note": "[CMX001, Hexadecyloxypropyl-cidofovir]", "values": [{"measurement": "Enhanced Activity", "setting": "Variola major; CMX001 versus cidofovir EC50", "value": 271}, {"measurement": "EC50", "setting": "Variola major; Vero 76", "value": 100, "unit": "nM"}, {"measurement": "Enhanced Activity", "setting": "Adenovirus [1]; CMX001 versus cidofovir EC50", "value": 65}, {"measurement": "IC50", "setting": "Adenovirus [1]; unidentified adenovirus", "value": 20, "unit": "nM"}, {"measurement": "EC50", "setting": "Adenovirus [1]; unidentified adenovirus, HFF", "value": 20, "unit": "nM"}, {"measurement": "TC50", "setting": "human astrocytes", "value": "134400 nM and 165800 nM"}, {"measurement": "EBV viral load", "setting": "EBV; heart transplant recipient, 7 Mar. 2010 after first dose 20 mg (3 Mar. 2010: 267,338)", "value": "47,427 copies/mL"}, {"measurement": "EBV in the plasma", "setting": "EBV; patient, 4 mg/kg twice weekly", "value": "remains negative"}, {"measurement": "tolerability", "setting": "EBV; patient, 4 mg/kg twice weekly", "value": "tolerated CMX001 well"}, {"measurement": "fold more activity compared to cidofovir", "setting": "Adenovirus [2]; AdV 31", "value": 5, "unit": "fold"}, {"measurement": "EC50", "setting": "Adenovirus [2]; AdV 31", "value": 280, "unit": "nM"}, {"measurement": "EC50", "setting": "Adenovirus [2]; majority of adenovirus serotypes", "value": "< 50", "unit": "nM"}, {"measurement": "concentration reducing the quantity of viral DNA by 10-fold", "setting": "HCMV", "value": "less than 1 nanomolar"}, {"measurement": "reduction of accumulation of viral DNA", "setting": "HCMV", "value": "at least three orders of magnitude"}, {"measurement": "fold reduction of viral DNA", "setting": "HCMV; CMX001 10 nanomolar", "value": 1000, "unit": "fold"}, {"measurement": "amplification of viral DNA", "setting": "HCMV; CMX001 above 10 nM", "value": "essentially eliminated the amplification of viral DNA"}, {"measurement": "EC50", "setting": "HSV-1; Human alphaherpesvirus 1, ACV resistant strain B-2006", "value": "10 ± 0.7", "unit": "nM"}, {"measurement": "EC50", "setting": "HSV-1; Human alphaherpesvirus 1, ACV resistant strain DM2.1", "value": 8, "unit": "nM"}, {"measurement": "EC50", "setting": "HSV-1; Human alphaherpesvirus 1, ACV resistant strain PAAr5", "value": 10, "unit": "nM"}, {"measurement": "EC50", "setting": "HSV-1; Human alphaherpesvirus 1, F (wild type), Table 9", "value": "15 ± 6", "unit": "nM"}, {"measurement": "EC50", "setting": "HSV-1; Human alphaherpesvirus 1, SC16, ACV resistant strain SC16-S1", "value": 10, "unit": "nM"}, {"measurement": "EC50", "setting": "HSV-1; Human alphaherpesvirus 1, read-out: EC50 range, panel of wild-type and ACV-resistant isolates of HSV-1 and HSV-2", "value": "8 to 30", "unit": "nM"}, {"measurement": "EC50", "setting": "HSV-1; Human alphaherpesvirus 1, strain E-377", "value": "60 ± 30", "unit": "nM"}, {"measurement": "EC50", "setting": "HSV-1; Human alphaherpesvirus 1, strain F", "value": "10 ± 5", "unit": "nM"}, {"measurement": "EC50", "setting": "HSV-1; Human alphaherpesvirus 1, strain HL-3", "value": "10 ± 10", "unit": "nM"}, {"measurement": "EC50", "setting": "HSV-2; Human alphaherpesvirus 2, ACV resistant strain 11572", "value": "27 ± 18", "unit": "nM"}, {"measurement": "EC50", "setting": "HSV-2; Human alphaherpesvirus 2, ACV resistant strain 11680", "value": "9 ± 0.7", "unit": "nM"}, {"measurement": "EC50", "setting": "HSV-2; Human alphaherpesvirus 2, ACV resistant strain 12247", "value": "21 ± 12", "unit": "nM"}, {"measurement": "EC50", "setting": "HSV-2; Human alphaherpesvirus 2, ACV resistant strain AG-3", "value": "23 ± 9", "unit": "nM"}, {"measurement": "EC50", "setting": "HSV-2; Human alphaherpesvirus 2, G (wild type), Table 9", "value": "29 ± 15", "unit": "nM"}, {"measurement": "EC50", "setting": "HSV-2; Human alphaherpesvirus 2, strain G", "value": "10 ± 10", "unit": "nM"}, {"measurement": "EC50", "setting": "HSV-2; Human alphaherpesvirus 2, strain MS", "value": "80 ± 70", "unit": "nM"}, {"measurement": "EC50", "setting": "HSV-2; Human alphaherpesvirus 2, strain SR", "value": "20 ± 20", "unit": "nM"}, {"measurement": "cytotoxicity at 1 μM", "setting": "[3]; JCV-infected SVG cells (established infection), 1 μM, JCV-infected cells, established infection", "value": 40, "unit": "%"}, {"measurement": "cytotoxicity at 4 days, 0.01 μM", "setting": "[3]; SVG cells, 0.01 μM, 4 days, read-out: reduction in cell viability (alamar blue)", "value": 6, "unit": "%"}, {"measurement": "cytotoxicity at 4 days, 0.1 μM", "setting": "[3]; SVG cells, 0.1 μM, 4 days, read-out: reduction in cell viability (alamar blue)", "value": 11, "unit": "%"}, {"measurement": "cytotoxicity at 4 days, 1 μM", "setting": "[3]; SVG cells, 1 μM, 4 days, read-out: reduction in cell viability (alamar blue)", "value": 32, "unit": "%"}, {"measurement": "cytotoxicity at 1 μM", "setting": "[3]; non-infected SVG cells, 1 μM, non-infected cells", "value": 15, "unit": "%"}, {"measurement": "reduction in total cell number (hematoxylin)", "setting": "SVG cells; 0.01 μM", "value": "did not result in significant reduction"}, {"measurement": "reduction in total cell number (hematoxylin)", "setting": "SVG cells; 0.03 μM", "value": 14, "unit": "%"}, {"measurement": "reduction in total cell number (hematoxylin)", "setting": "SVG cells; 0.07 μM", "value": 39, "unit": "%"}, {"measurement": "reduction in total cell number (hematoxylin)", "setting": "SVG cells; 0.1 μM", "value": 46, "unit": "%"}, {"measurement": "cell viability (MTS)", "setting": "SVG cells; 0.01 or 0.1 μM, non-infected or JCV-infected (established infection) SVG cells", "value": "did not alter cell viability"}, {"measurement": "concentrations at which cytotoxicity was observed", "setting": "SVG cells; SVG cells", "value": "≥ 1000", "unit": "nM"}, {"measurement": "time until virus cultures at the vaccination site became negative for vaccinia virus", "setting": "vaccinia virus", "value": "≤ 5", "unit": "days"}, {"measurement": "tolerability", "setting": "adenovirus [4]; 2-3 mg/kg", "value": "well tolerated"}, {"measurement": "peak cidofovir concentrations, fold lower than label for 5 mg/kg Vistide", "setting": "adenovirus [4]; female, human, plasma, oral", "value": "more than 100 fold"}, {"measurement": "decrease in viral load", "setting": "adenovirus [4]; oral CMX001", "value": 8, "unit": "log"}]}
